Like-named read-outs stand apart in the source and are kept apart here.
Legend:
[1] = tested on: cytokinin-dependent tobacco callus; experiment: Growth of cytokinin-dependent tobacco callus (plant cell division); format: cell-based, Nicotiana tabacum L. cv. Wisconsin 38; details: at concentration with highest activity; activity of kinetin set at 100%
Protocol: The effect on plant cell division. Cytokinin-dependent tobacco callus Nicotiana tabacum L. cv. Wisconsin 38 was maintained at 25° C. in darkness on modified MS medium, containing 4 μmol/l nicotinic acid, 2.4 μmol/l pyridoxine hydrochloride, 1.2 μmol/l thiamine, 26.6 μmol/l glycine, 1.37 μmol/l glutamine, 1.8 μmol/1 myo-inositol, 30 g/l of sucrose, 8 g/l of agar, 5.37 μmol/l NAA and 0.5 μmol/l BAP. Subcultivation was carried out every three weeks. Fourteen days before the bioassay, the callus tissue was transferred to the media without BAP. Biological activity was determined from the increase in fresh callus weight after four weeks of cultivation. Five replicates were prepared for each cytokinin concentration and the entire test was repeated twice. From the obtained data, the concentration with highest activity was selected for each compound tested. Relative activity at this concentration was calculated (see Table 4 below).
The cytokinins to be tested were dissolved in dimethylsulfoxide (DMSO) and the solution brought up to 10^−3M with distilled water.

melanoma cell line G-361 = experiment: In vitro cytotoxic activity (metabolisation of Calcein AM); format: cell-based, human; details: G-361 cells, 72 hours incubation, called GI50, read-out: Cell line tested/IC50 (μmol/L) G-361
From the text: (§1) In vitro Cytotoxic Activity (Metabolisation of Calcein AM). Because toxic compounds negatively influence metabolic processes of cells, many standard cytotoxicity assays are based on measurement of metabolisation rate of various artificial substrates. Resulting product is then quantified, for example, by means of spectrometry. The assays can be easily modified for use in 96-well plates. For evaluation of cytotoxicity of the 6,8-disubstituted purines of this invention, a microtiter assay based on quantification of metabolisation of Calcein AM was used. The assay is widely used in drug screening programs and in chemosensitivity testing. In live cells, Calcein AM is enzymatically hydrolysed and accumulation of resulting calcein is manifested by green fluorescence.
(§2) The following human cell lines were used for routine screening of the compounds: normal diploid fibroblasts BJ, T-lymphoblastic leukemia cell line CEM, promyelocytic leukemia cell line HL-60, erytroid leukemia cell line K-562, breast carcinoma cell line MCF-7, osteosarcoma cell line HOS and melanoma cell line G-361. The cells were maintained in Nunc/Corning 80 cm^2 plastic tissue culture flasks and cultured in cell culture medium (DMEM with 5 g/l glucose, 2 mM glutamine, […] penicillin, 100 mmg/ml streptomycin, 10% fetal calf serum and sodium bicarbonate).
(§3) The cell suspensions were prepared and diluted according to the particular cell type and the expected target cell density (2.500-30.000 cells per well based on cell growth characteristics) and pipetted (80 μl) into 96-well plates. Inoculates were allowed a pre-incubation period of 24 hours at 37° C. and 5% CO2 for stabilization. Tested compound was added in total volume of […] of water at time zero. Usually, test compound was evaluated at six 3-fold dilutions. In routine testing, the highest concentration tested was 100 μM, but it could have been adjusted because of limited solubility of a compound. All drug concentrations were tested in triplicates.
(§4) Incubations of cells with the test compounds lasted for 72 hours at 37° C., in 5% CO2 atmosphere and 100% humidity. At the end of incubation period Calcein AM in PBS was added into final concentration of 1 μg/ml. After another 1 hour of incubation fluorescence (FD) was measured with the Labsystem FIA Reader Fluoroscan Ascent (UK). Growth inhibition (GI) was estimated using the following equitation: GI=(mean FDdrug exposed wells−mean FDblank)/(mean FDcontrol wells−mean FDblank)×100%. The GI50 value, the drug concentration causing 50% reduction of Calcein AM conversion, was calculated from the obtained dose response curves.

[2] = tested on: breast carcinoma cell line MCF-7; experiment: as above; format: cell-based, human; details: MCF7 cells, 72 hours incubation, called GI50, read-out: Cell line tested/IC50 (μmol/L) MCF7
From the text: as §1, §2, §3, §4

[3] = tested on: erytroid leukemia cell line K-562; experiment: as above; format: cell-based, human; details: 72 hours incubation, called GI50, read-out: Cell line tested/IC50 (μmol/L) K-562
From the text: as §1, §2, §3, §4

[4] = tested on: osteosarcoma cell line HOS; experiment: as above; format: cell-based, human; details: HOS cells, 72 hours incubation, called GI50, read-out: Cell line tested/IC50 (μmol/L) HOS
From the text: as §1, §2, §3, §4

[5] = tested on: normal diploid fibroblasts BJ; experiment: as above; format: cell-based, human; details: BJ cells, 72 hours incubation, called GI50, read-out: Cell line tested/IC50 (μmol/L) BJ
From the text: as §1, §2, §3, §4

[6] = tested on: T-lymphoblastic leukemia cell line CEM; experiment: as above; format: cell-based, human; details: CEM cells, 72 hours incubation, called GI50, read-out: Cell line tested/IC50 (μmol/L) CEM
From the text: as §1, §2, §3, §4

[7] = tested on: Human diploid fibroblast BJ; experiment: In vitro cytotoxic activity (metabolisation of MTT); format: cell-based; details: 72 hours, BJ passage 18-22
Protocol: In vitro Cytotoxic Activity (metabolisation of Mtt). MTT ([…]) assay is a standard colorimetric assay for evaluation of cytotoxicity. Mitochondrial dehydrogenase activity converts yellow MTT into violet formazan which is measured by means of spectrometry.
Human diploid fibroblast BJ (passage 18-22) were seeded into 96-well plate (5.000 cells per well). After 6 hours cultivation medium (DMEM with 5 g/l glucose, 2 mM glutamine, 100 U/ml penicillin, 100 mmg/ml streptomycin, 10% fetal calf serum and sodium bicarbonate) was replaced with the cultivation medium containing test compounds in concentration range of 0-200 μM. Highest concentration was adjusted if the solubility of the compound was limiting. Every concentration was tested in pentaplicate. MTT was added to the cells after 72 hours incubation (final concentration 0.5 mg/ml) and incubation continued for another 3 hours. MTT was solubilised by DMSO and absorbance at 570 nm was measured. Growth inhibition (GI) was estimated using the following equitation: GI=(mean A drug exposed wells−mean Ablank/mean Acontrol wells−mean Ablank)×100%. The GI20 value, the drug concentration causing 20% decrease in mitochondrial dehydrogenase activity, was calculated from the obtained dose response curves.

[8] = Homo sapiens, K562, K-562 cells

SMILES | melting point [°C] | GI20 [7] [µM] | IC50 (melanoma cell line G-361) [µmol/L] | IC50 [2] [µmol/L] | IC50 ([3]; K-562 cells) [µmol/L] | IC50 [4] [µmol/L] | IC50 [5] [µmol/L] | IC50 [6] [µmol/L] | other results
CN(C)c1nc2ncnc(NCc3ccco3)c2[nH]1 [Compound 61, 8-Dimethylamino-6-furfurylaminopurine] | 245 to 246 | – | – | – | – | – | – | – | –
Nc1nc2ncnc(NCc3ccccc3)c2[nH]1 [Compound 83, 8-Amino-6-benzylaminopurine] | 223 to 226 | >100 | – | – | – | – | – | – | Activity (%) [1]: 197.08%; IC50 (melanoma cell line G-361; Homo sapiens): > 50 µmol/L; IC50 ([2]; Homo sapiens): > 50 µmol/L; IC50 [3, 8]: > 50 µmol/L; IC50 ([4]; Homo sapiens): > 50 µmol/L; IC50 ([5]; Homo sapiens): > 50 µmol/L; IC50 ([6]; Homo sapiens, CCRF-CEM): > 50 µmol/L
Nc1nc2ncnc(NCc3ccc(O)c(O)c3)c2[nH]1 [Compound 103] | – | >100 | > 50 | > 50 | > 50 | > 50 | > 50 | > 50 | –
COc1cccc(CNc2ncnc3nc(N)[nH]c23)c1O [Compound 104] | – | >100 | > 50 | > 50 | > 50 | > 50 | > 50 | > 50 | –
COc1ccc(CNc2ncnc3nc(N)[nH]c23)cc1O [Compound 105] | – | >100 | > 50 | > 50 | > 50 | > 50 | > 50 | > 50 | –
Nc1nc2ncnc(Nc3ccccc3O)c2[nH]1 [Compound 114] | – | >100 | > 50 | > 50 | > 50 | > 50 | > 50 | > 50 | –
Nc1nc2ncnc(Nc3cccc(O)c3)c2[nH]1 [Compound 115] | – | >100 | > 50 | > 50 | > 50 | > 50 | > 50 | > 50 | –
COc1nc2ncnc(NCc3ccco3)c2[nH]1 [Compound 120, 6-Furfurylamino-8-methoxypurine] | 196 to 198 | – | – | – | – | – | – | – | IC50 (melanoma cell line G-361; Homo sapiens): > 50 µmol/L; IC50 ([2]; Homo sapiens): > 50 µmol/L; IC50 [3, 8]: > 50 µmol/L; IC50 ([4]; Homo sapiens): > 50 µmol/L; IC50 ([5]; Homo sapiens): > 50 µmol/L; IC50 ([6]; Homo sapiens, CCRF-CEM): > 50 µmol/L
COc1nc2ncnc(NCC=C(C)C)c2[nH]1 [Compound 123, 8-Methoxy-6-(3-methylbut-2-en-1-ylamino)purine] | 205 to 210 | – | – | – | – | – | – | – | –
CSc1nc2ncnc(NCc3ccccc3)c2[nH]1 [Compound 148, 6-Benzylamino-8-methylsulphanylpurine] | 234 to 237 | – | – | – | – | – | – | – | Activity (%) [1]: 109.36%
CSc1nc2ncnc(NCC=C(C)C)c2[nH]1 [Compound 149, 6-(3-Methylbut-2-en-1-ylamino)-8-methylsulphanylpurine] | 96 to 99 | – | – | – | – | – | – | – | –
Oc1nc2ncnc(NCc3ccccc3)c2[nH]1 [Compound 167, 6-Benzylamino-8-hydroxypurine] | 243 to 247 | – | – | – | – | – | – | – | IC50 (melanoma cell line G-361; Homo sapiens): > 50 µmol/L; IC50 ([2]; Homo sapiens): > 50 µmol/L; IC50 [3, 8]: > 50 µmol/L; IC50 ([4]; Homo sapiens): > 50 µmol/L; IC50 ([5]; Homo sapiens): > 50 µmol/L; IC50 ([6]; Homo sapiens, CCRF-CEM): > 50 µmol/L
N#Cc1nc2ncnc(NCc3ccccc3)c2[nH]1 [Compound 174, 6-Benzylamino-8-cyanopurine] | 210 to 213 | – | – | – | – | – | – | – | –
NCc1nc2ncnc(NCc3ccccc3)c2[nH]1 [Compound 181, 8-Aminomethyl-6-benzylaminopurine] | 187 to 189 | – | – | – | – | – | – | – | IC50 (melanoma cell line G-361; Homo sapiens): > 50 µmol/L; IC50 ([2]; Homo sapiens): > 50 µmol/L; IC50 [3, 8]: > 50 µmol/L; IC50 ([4]; Homo sapiens): > 50 µmol/L; IC50 ([5]; Homo sapiens): > 50 µmol/L; IC50 ([6]; Homo sapiens, CCRF-CEM): > 50 µmol/L
O=C(O)c1nc2ncnc(NCc3ccccc3)c2[nH]1 [Compound 202, 6-Benzylaminopurine-8-carboxylic acid] | 230 to 232 | – | – | – | – | – | – | – | –
NCCCNc1nc2ncnc(NCc3ccccc3)c2[nH]1 [Compound 209, 8-(3-Aminopropylamino)-6-benzylaminopurine] | 170 to 173 | >100 | – | – | – | – | – | – | Activity (%) [1]: 150.01%; IC50 (melanoma cell line G-361; Homo sapiens): > 50 µmol/L; IC50 ([2]; Homo sapiens): > 50 µmol/L; IC50 [3, 8]: > 50 µmol/L; IC50 ([4]; Homo sapiens): > 50 µmol/L; IC50 ([5]; Homo sapiens): > 50 µmol/L; IC50 ([6]; Homo sapiens, CCRF-CEM): > 50 µmol/L
CC(=CCNc1ncnc2nc(NCCCN)[nH]c12)CO [Compound 210] | – | >100 | > 50 | > 50 | > 50 | > 50 | > 50 | > 50 | –
CC(C)=CCNc1ncnc2nc(NCCCN)[nH]c12 [Compound 211] | – | >100 | > 50 | > 50 | > 50 | > 50 | > 50 | > 50 | –
OCCOc1nc2ncnc(NCc3ccco3)c2[nH]1 [Example 7 (18), 6-Furfurylamino-8-(2-hydroxyethyloxy)purine] | 182 to 184 | – | – | – | – | – | – | – | –
CC(C)=CCNc1ncnc2nc(N(C)C)[nH]c12 [Example 7 (19), 8-Dimethylamino-6-(3-methylbut-2-en-1-ylamino)purine] | 246 to 249 | – | – | – | – | – | – | – | –
C/C(=C\CNc1ncnc2nc(N(C)C)[nH]c12)CO [Example 7 (23), (E)-8-Dimethylamino-6-(4-hydroxy-3-methylbut-2-en-1-ylamino)purine] | 245 to 249 | – | – | – | – | – | – | – | –
